Drawing on patent US11597701B2, “Integrin ligands and uses thereof” (Arrowhead Pharmaceuticals, Inc., priority 2017, dated 2023), this text covers IC50 for one molecule.

SMILES strings stand for the structures.

The assay has as its target αvβ6 integrin (Homo sapiens, UniProt P06756+P18564). In words: IC50 binding activity (Examples 3 and 12). The settings on record: Example 12, Table 17; azide-functionalized structures (2b, 6.1b, 7b, 23b) examined. The text has this:
As reported in the following Table 1, IC50 binding data was obtained for the αvβ6 integrin ligands of Structures 1 and 2:
Azide-functionalized structures (i.e., Structures 1b and 2b) were examined for IC50 under conditions typically used and known in the art.
As reported in the following Table 17, additional IC50 binding data was obtained for the αvβ6 integrin ligands of Structures 2, 6.1, 7, and 23 used in certain Examples herein: […]

αvβ6 integrin, sequence (P06756 31-1048): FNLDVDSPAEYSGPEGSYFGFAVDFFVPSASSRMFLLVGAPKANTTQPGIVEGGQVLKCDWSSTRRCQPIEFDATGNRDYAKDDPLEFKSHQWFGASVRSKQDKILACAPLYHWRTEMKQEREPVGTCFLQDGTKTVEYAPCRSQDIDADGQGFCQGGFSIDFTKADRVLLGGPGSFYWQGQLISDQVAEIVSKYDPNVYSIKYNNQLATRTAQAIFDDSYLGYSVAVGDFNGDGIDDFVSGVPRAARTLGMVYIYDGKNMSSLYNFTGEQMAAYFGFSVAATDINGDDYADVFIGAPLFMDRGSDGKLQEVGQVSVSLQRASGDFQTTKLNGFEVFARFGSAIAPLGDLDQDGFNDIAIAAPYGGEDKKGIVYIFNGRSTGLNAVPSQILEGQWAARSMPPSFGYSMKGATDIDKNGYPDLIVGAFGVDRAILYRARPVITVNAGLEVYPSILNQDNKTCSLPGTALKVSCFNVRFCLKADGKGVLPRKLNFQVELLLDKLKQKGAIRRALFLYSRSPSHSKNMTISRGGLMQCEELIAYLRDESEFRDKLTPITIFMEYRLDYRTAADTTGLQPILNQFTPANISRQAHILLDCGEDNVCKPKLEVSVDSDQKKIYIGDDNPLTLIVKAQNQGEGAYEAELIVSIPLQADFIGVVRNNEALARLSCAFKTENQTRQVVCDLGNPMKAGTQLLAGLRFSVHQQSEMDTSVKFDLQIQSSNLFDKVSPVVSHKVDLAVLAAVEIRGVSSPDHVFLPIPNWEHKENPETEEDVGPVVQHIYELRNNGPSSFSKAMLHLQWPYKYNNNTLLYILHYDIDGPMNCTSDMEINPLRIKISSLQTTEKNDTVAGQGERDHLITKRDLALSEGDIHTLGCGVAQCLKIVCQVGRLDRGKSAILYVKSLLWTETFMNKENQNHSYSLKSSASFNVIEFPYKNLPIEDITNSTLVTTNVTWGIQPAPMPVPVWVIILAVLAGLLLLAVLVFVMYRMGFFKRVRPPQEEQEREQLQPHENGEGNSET
αvβ6 integrin, sequence (P18564 22-788): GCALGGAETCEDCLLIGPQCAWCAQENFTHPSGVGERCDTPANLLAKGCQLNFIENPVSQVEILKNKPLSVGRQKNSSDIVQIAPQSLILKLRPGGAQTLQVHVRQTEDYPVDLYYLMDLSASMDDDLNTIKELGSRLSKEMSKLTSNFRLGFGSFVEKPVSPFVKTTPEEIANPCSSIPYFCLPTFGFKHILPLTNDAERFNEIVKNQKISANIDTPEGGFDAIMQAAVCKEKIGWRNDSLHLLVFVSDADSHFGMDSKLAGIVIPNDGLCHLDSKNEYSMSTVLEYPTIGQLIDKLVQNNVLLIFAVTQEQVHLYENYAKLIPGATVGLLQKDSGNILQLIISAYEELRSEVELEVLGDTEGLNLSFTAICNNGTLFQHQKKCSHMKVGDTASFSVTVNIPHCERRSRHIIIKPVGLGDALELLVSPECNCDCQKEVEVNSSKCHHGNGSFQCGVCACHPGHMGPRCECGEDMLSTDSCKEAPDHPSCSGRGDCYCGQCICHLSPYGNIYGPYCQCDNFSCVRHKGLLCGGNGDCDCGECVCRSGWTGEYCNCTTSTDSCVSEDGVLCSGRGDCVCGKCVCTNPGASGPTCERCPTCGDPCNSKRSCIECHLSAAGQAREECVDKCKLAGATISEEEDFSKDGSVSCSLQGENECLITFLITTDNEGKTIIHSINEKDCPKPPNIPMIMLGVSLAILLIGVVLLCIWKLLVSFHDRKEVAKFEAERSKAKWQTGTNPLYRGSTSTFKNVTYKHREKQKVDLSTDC

In general, IC50 refers to the point on the concentration scale where inhibition reaches its midpoint. Higher therefore signals a need for much substance. In turn, `Cc1ccnc(NCCCC(=O)NCC(=O)N[C@@H](CC(=O)O)c2ccc(-c3ccc(OCCOCCOCCOCCOCCN=[N+]=[N-])c4ccccc34)cc2)c1` [Structure 6.1] yielded an IC50 of 1.6 nM.
